Test: in vitro
Conditions: human, hela cells, % viability

| Structure (SMILES) | viability at 28.5 h, 10 µM [%] |
| --- | --- |
| Cc1noc(C)c1NC(=O)N(Cc1ccc2ccccc2c1)CC1CCNCC1 [CBK049774] | 110 |
| O=C(Nc1c(F)cccc1F)N(Cc1cc(F)cc(F)c1)CC1CCNCC1 [CBK049795] | 90.5 |
| CC(C)(C)c1ccccc1NC(=O)N(Cc1cc(F)cc(F)c1)CC1CCNCC1 [CBK049802] | 108 |
| Nc1nc(CC(=O)N2CCCCC2)cs1 [CBK049866] | 97.9 |
| Cc1c(Cl)cccc1S(=O)(=O)Nc1c(C(=O)O)[nH]c2ccccc12 [CBK049889] | 86.5 |
| COc1cc([C@@]23CC[C@@H](NC(=O)Nc4ccc(F)c(F)c4)C[C@@H]2N(C)CC3)ccc1O [CBK049958C] | 90.3 |
| COC(=O)c1sc2ncccc2c1NS(=O)(=O)c1cc(Br)c(Cl)s1 [CBK049973] | 112 |
| COC(=O)c1sc2ncccc2c1NS(=O)(=O)Cc1ccccc1[N+](=O)[O-] [CBK049974] | 102 |
| COc1ccc(Br)cc1S(=O)(=O)Nc1c(C(=O)O)sc2ncccc12 [CBK049978] | 88 |
| COc1ccc(S(=O)(=O)Nc2c(C(=O)O)sc3ncccc23)cc1OC [CBK049979] | 87.3 |
| Cc1noc(C)c1S(=O)(=O)Nc1c(C(=O)O)sc2ncccc12 [CBK049988] | 99.5 |
| CCN(CC)C(=O)c1sc2ncccc2c1NS(=O)(=O)Cc1ccccc1[N+](=O)[O-] [CBK050022] | 92.1 |
| Cc1ccc(S(=O)(=O)Nc2c(C(=O)N3CCN(C)CC3)sc3ncccc23)cc1[N+](=O)[O-] [CBK050025] | 91.2 |
| CN1CCN(C(=O)c2[nH]c3ccccc3c2NS(=O)(=O)c2cccc3cccnc23)CC1 [CBK050041] | 87.2 |
| CN1CCN(C(=O)c2[nH]c3ccccc3c2NS(=O)(=O)Cc2ccccc2)CC1 [CBK050046] | 93.9 |
| CN1CCN(C(=O)c2[nH]c3ccccc3c2NS(=O)(=O)c2cc(F)c(Br)cc2F)CC1 [CBK050051] | 90.5 |
| CN1CCN(C(=O)c2[nH]c3ccccc3c2NS(=O)(=O)Cc2ccccc2[N+](=O)[O-])CC1 [CBK050059] | 92.6 |

| Structure (SMILES) | viability at 28.5 h, 10 µM [%] |
| --- | --- |
| Cc1ccc(S(=O)(=O)Nc2c(C(=O)N3CCN(C)CC3)[nH]c3ccccc23)cc1[N+](=O)[O-] [CBK050060] | 90.1 |
| O=C(c1[nH]c2ccccc2c1NS(=O)(=O)/C=C/c1ccccc1)N1CCOCC1 [CBK050068] | 93.1 |
| O=C(c1[nH]c2ccccc2c1NS(=O)(=O)Cc1ccccc1[N+](=O)[O-])N1CCOCC1 [CBK050079] | 107 |
| O=C(Nc1ccc(F)cc1)c1[nH]c2ccccc2c1NS(=O)(=O)c1ccc(Cl)c(Cl)c1Cl [CBK050091] | 86.7 |
| COc1ccc(Br)cc1S(=O)(=O)Nc1c(C(=O)Nc2ccc(F)cc2)[nH]c2ccccc12 [CBK050095] | 88.2 |
| CCN(CC)C(=O)c1[nH]c2ccccc2c1NS(=O)(=O)c1ccc(F)cc1 [CBK050105] | 94.1 |
| CCN(CC)C(=O)c1[nH]c2ccccc2c1NS(=O)(=O)c1cc(Br)ccc1OC [CBK050113] | 92.6 |
| CC(C)(C)Cc1nnc(N)s1 [CBK050161] | 92.6 |
| CC(C)c1nnc(NS(=O)(=O)c2ccc(N)cc2)s1 [CBK050163] | 101 |
| Cc1ccc(S(N)(=O)=O)cc1NC(=O)c1ccc[nH]1 [CBK050200] | 91.2 |
| O=C(CCCc1ccccc1)Nc1c(F)cc(F)cc1OC1CCNCC1 [CBK050222T] | 96.1 |
| O=C(Nc1ccccc1OC1CCNCC1)c1ccccc1 [CBK050238T] | 115 |
| COc1cc(F)cc(OC2CCNCC2)c1NC(=O)C1(c2ccccc2)CCCCC1 [CBK050241T] | 107 |
| COc1cc(F)cc(OC2CCNCC2)c1NC(=O)Cc1c[nH]c2ccccc12 [CBK050246T] | 91 |
| COc1ccc(CCCC(=O)Nc2c(C)nn(C)c2N2CCNCC2)cc1OC [CBK050252T] | 93 |
| Cc1nn(C)c(N2CCNCC2)c1NC(=O)Cc1c[nH]c2ccccc12 [CBK050256T] | 97.1 |

Same assay, conditions: human, hela cells, % viability, bulk resorufin, single well

| Structure (SMILES) | viability at 28.5 h, 10 µM [%] |
| --- | --- |
| CN(C)C(=O)c1ccc(Cn2nc(C(=O)NC3CC3)c3ccccc32)cc1 [CBK047720] | 93.1 |
| Cc1ccc(Cn2nc(C(=O)NCc3ccncc3)c3ccccc32)cc1 [CBK047832] | 82.7 |
| Cc1ccc(Cn2nc(C(=O)Nc3ccccn3)c3ccccc32)cc1 [CBK047839] | 105 |
| CONC(=O)c1nn(Cc2ccc(C)cc2)c2ccccc12 [CBK047848] | 79.6 |
| O=C(Nc1ccc2c(c1)OC(F)(F)O2)c1nn(Cc2ccc(-c3csnn3)cc2)c2ccccc12 [CBK047877] | 86.8 |
| COc1ccc(Cn2nc(C(=O)NCc3ccco3)c3ccccc32)cc1 [CBK047883] | 63.3 |
| COc1ccc(Cn2nc(C(=O)Nc3nnc(C(F)(F)F)s3)c3ccccc32)cc1 [CBK047884] | 99.3 |
| Cc1ccc(Cn2nc(NC(=O)Oc3ccccc3)c3ccccc32)cc1 [CBK048407] | 84.2 |
| COc1ccc(OC(=O)Nc2nn(Cc3ccc(C#N)cc3)c3ccc(C)cc23)cc1 [CBK048654] | 74.4 |

From publication PMC12040169 (PLOS Biology, 2025)
